# Test results published in US7632870B2, “Composition based on substituted 1,3-diphenylprop-2-en-1-one derivatives, preparation and uses thereof” (Genfit, priority 2002, dated 2009).
# Experiments:
# PPARγ = molecular target: T1, PPARγ (Homo sapiens, UniProt P37231); experiment: PPARγ/Gal4 transactivation system in RK13 cells (luciferase reporter); format: cell-based; conditions: 24 hours
# T1 construct: expressed in transfected cells; host or cells: RK13 cells
# T1 sequence (P37231 238-503 limits assumed): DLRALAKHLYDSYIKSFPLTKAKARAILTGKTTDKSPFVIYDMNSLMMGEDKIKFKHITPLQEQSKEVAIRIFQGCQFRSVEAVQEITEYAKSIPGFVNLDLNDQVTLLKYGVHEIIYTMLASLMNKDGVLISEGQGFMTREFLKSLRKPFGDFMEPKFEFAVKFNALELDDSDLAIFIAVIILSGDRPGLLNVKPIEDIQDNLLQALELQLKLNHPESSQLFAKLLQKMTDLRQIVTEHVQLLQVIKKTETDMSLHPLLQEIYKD
# Description: RK13 cells were incubated with the different compounds at concentrations of 1, 10 and 100 μM for 24 hours. The results are expressed as the induction factor (luminescent signal relative to untreated cells) after the different treatments.
# (§1) PPAR activation was tested in vitro in RK13 fibroblast cell lines by measuring the transcriptional activity of chimeras composed of the DNA binding domain of the yeast gal4 transcription factor and the ligand binding domain of the different PPARs. These latter results were then confirmed in cell lines according to the following protocols:
# (§2) RK13 cells were from ECACC (Porton Down, UK) and were grown in DMEM medium supplemented with 10% (V/N) fetal calf serum, 100 U/ml penicillin (Gibco, Paisley, UK) and 2 mM L-glutamine (Gibco, Paisley, UK). The culture medium was changed every two days. Cells were kept at 37° C. in a humidified 95% air/5% CO2 atmosphere.
# (§3) The plasmids pG5TkpGL3, pRL-CMV, pGal4-hPPRAα, pGal4-hPPRAγ and pGal4-φ have been described by Raspe, Madsen et al. (1999). The pGal4-mPPRAα and pGal4-hPPRAγ constructs were obtained by cloning into the pGal4-φ vector of PCR-amplified DNA fragments corresponding to the DEF domains of the human PPARα and PPRAγ nuclear receptors.
# RK13 cells were seeded in 24-well culture dishes at 5×10^4 cells/well and transfected for 2 hours with the reporter plasmid pG5TkpGL3 (50 ng/well), the expression vectors pGal4-φ, pGal4-mPPRAα, pGal4-hPPRAα, pGal4-hPPRAγ (100 ng/well) and the transfection efficiency control vector PRL-CMV (1 ng/well) according to the previously described protocol (Raspe, Madsen et al. 1999), then incubated for 36 hours with the test compounds. At the end of the experiment, the cells were lysed (Gibco, Paisley, UK) and luciferase activity was determined with a Dual-Luciferase™ Reporter Assay System kit (Promega, Madison, Wis., USA) according to the supplier's instructions as previously described (Raspe, Madsen et al. 1999).
# [1] = system: Apo E2/E2 transgenic mice; experiment: Effects on triglyceride and cholesterol metabolism in vivo
# Description: Apo E2/E2 transgenic mice were kept on a 12-hour light/dark cycle at a constant temperature of 20±3° C. After a 1 week acclimation, the mice were weighed and divided into groups of 6 animals selected so that body weight would be uniformly distributed. The test compounds were suspended in carboxymethylcellulose and administered by intragastric gavage at the indicated doses, once a day for 7 or 8 days. Animals had access to food and water ad libitum. At the end of the experiment the animals were weighed and sacrificed under anesthesia. Blood was collected on EDTA. Plasma was prepared by centrifugation at 3000 rpm for 20 minutes. Liver samples were taken and stored frozen in liquid nitrogen for subsequent analysis.
# Serum lipid concentrations (total cholesterol and free cholesterol, triglycerides and phospholipids) were determined by a colorimetric assay (Boehringer, Mannheim, Germany) according to the supplier's instructions. Serum concentrations of apolipoproteins AI, AII and CIII were determined as previously described (Raspe et al. J. Lipid Res. 40, 2099-2110, 1999, Asset G et al., Lipids, 34, 39-44, 1999).
# PPARα = molecular target: T2, PPARα (Homo sapiens, UniProt Q07869); experiment: PPARα/Gal4 transactivation system in RK13 cells (luciferase reporter); format: cell-based, rabbit; conditions: 24 hours
# T2 construct: expressed in transfected cells; host or cells: RK13 cells
# T2 sequence (Q07869 239-466 limits assumed): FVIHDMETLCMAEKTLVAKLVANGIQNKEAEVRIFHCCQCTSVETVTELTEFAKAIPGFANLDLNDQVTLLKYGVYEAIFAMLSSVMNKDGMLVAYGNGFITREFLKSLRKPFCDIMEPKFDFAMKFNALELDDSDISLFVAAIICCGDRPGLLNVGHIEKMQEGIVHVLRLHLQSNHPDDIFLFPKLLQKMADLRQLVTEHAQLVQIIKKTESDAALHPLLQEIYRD
# Description: RK13 cells were incubated with the different compounds at concentrations of 10, 30 and 100 μM or 1, 10 and 100 μM for 24 hours. The results are expressed as the induction factor (luminescent signal relative to untreated cells) after the different treatments.
# as §1, §2, §3
# […] At the end of the experiment, the cells were lysed (Gibco, Paisley, UK) and luciferase activity was determined with a Dual-Luciferase™ Reporter Assay System kit (Promega, Madison, Wis., USA) according to the supplier's instructions as previously described (Raspe, Madsen et al. 1999).
# LDL = experiment: Protection against LDL oxidation by copper (conjugated diene formation); format: biochemical; conditions: FIG. 1-3; compound at 10^-4M; copper alone 348
# Description: LDL oxidation is an important alteration and plays a predominant role in the establishment and development of atherosclerosis (Jurgens, Hoff et al. 1987). […] Unless otherwise indicated, the reagents were from Sigma (St Quentin, France).
# LDL were prepared according to the method described by Lebeau et al. (Lebeau, Furman et al. 2000).
# The solutions of test compounds were prepared at 10^−2 M concentration in bicarbonate buffer (pH 9) and diluted in PBS to obtain final concentrations ranging from 0.1 to 100 μM for a total ethanol concentration of 1% (V/V).
# Prior to oxidation, EDTA was removed from the LDL preparation by dialysis. Oxidation then took place at 30° C. by addition of 100 μl of 16.6 μM CuSO4 solution to 160 μL of LDL (125 μg protein/ml) and 20 μl of a test compound solution. The formation of dienes, the species under observation, was followed by measuring optical density at 234 nm in the samples treated with the compounds but in the presence or absence of copper. Optical density at 234 nm was measured every 10 minutes for 8 hours in a thermostated spectrophotometer (Tecan Ultra 380). The analyses were performed in triplicate. The compounds were considered to have antioxidant activity when they induced a longer lag phase and reduced the rate of oxidation and the amount of dienes formed in comparison with the control sample. […] FIGS. 1, 2 and 3 give an example of the results illustrating the antioxidant properties of compounds 2 and 5.
Induction factor (luminescent signal relative to untreated cells) (PPARγ; 1 μM),Induction factor (luminescent signal relative to untreated cells) (PPARγ; 10 μM),"Induction factor (luminescent signal relative to untreated cells) (PPARγ; 10 μM, listed as Cp17)",Induction factor (luminescent signal relative to untreated cells) (PPARγ; 100 μM),Induction factor (luminescent signal relative to untreated cells) (PPARα; 1 μM),"Induction factor (luminescent signal relative to untreated cells) (PPARα; 10 μM, listed as Cp17)","Induction factor (luminescent signal relative to untreated cells) (PPARγ; 100 μM, listed as Cp33)","Induction factor (luminescent signal relative to untreated cells) (PPARα; 1 μM, listed as Cp33)","Induction factor (luminescent signal relative to untreated cells) (PPARα; 10 μM, listed as Cp33)","Induction factor (luminescent signal relative to untreated cells) (PPARα; 100 μM, listed as Cp33)",Structure (SMILES),"triglycerides in large sized lipoparticles (exclusion chromatography) ([1]; gavage 200 mg/kg for 7 days, FIG. 3-3)","cholesterol in large sized lipoparticles (exclusion chromatography) ([1]; gavage 200 mg/kg for 7 days, FIG. 3-4)",maximum amount of conjugated dienes formed (LDL),"triglycerides in large sized lipoparticles (exclusion chromatography) ([1]; 50 mg/kg/day for 8 days, FIG. 3-11)","cholesterol in large sized lipoparticles (exclusion chromatography) ([1]; 50 mg/kg/day for 8 days, FIG. 3-12)"
15.37,25,24.92,6.13,79.76,85.69,–,–,–,–,"Cc1cc(/C=C/C(=O)c2ccc(Cl)cc2)cc(C)c1OC(C)(C)C(=O)O [Compound 17, 1-[4-chlorophenyl]-3-[3,5-dimethyl-4-carboxydimethylmethyloxyphenyil]prop-2-en-1-one]",decreased,decreased,327 nmol per mg of LDL,–,–
15.65,33.90,–,45.6,–,–,45.58,22.05,44.52,77.62,"CCCCCCOc1ccc(C(=O)/C=C/c2cc(C)c(OC(C)(C)C(=O)O)c(C)c2)cc1 [Compound 33, 1-[4-hexyloxyphenyl]-3-[3,5-dimethyl-4-carboxydimethylmethyloxyphenyl]prop-2-en-1-one]",–,–,–,decrease,decrease
